Measured values reported in PubChem BioAssay (NCI).
“And” between values parts separate entries of the source, which are not always exact repeats. Identical values can stand only once.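 These data come from cells grown in 96-well plates and exposed to compound for 48 hours at five concentrations. GI50 is the concentration that inhibits growth by half. TGI is the concentration that stops growth completely.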

Legend:
Assay in all cases: growth of human tumour cells (NCI), 48 h
HCC-2998 colon = system: HCC-2998 colon
HL-60(TB) leukemia = system: HL-60(TB) leukemia
K-562 leukemia = system: K-562 leukemia
SF-268 CNS = system: SF-268 CNS
SF-539 CNS = system: SF-539 CNS
SK-MEL-28 melanoma = system: SK-MEL-28 melanoma
SK-OV-3 ovarian = system: SK-OV-3 ovarian
SR leukemia = system: SR leukemia
SW-620 colon = system: SW-620 colon
T-47D breast = system: T-47D breast

Row | SMILES | GI50 (HCC-2998 colon) | TGI (HCC-2998 colon) | GI50 (HL-60(TB) leukemia) | TGI (HL-60(TB) leukemia) | GI50 (K-562 leukemia) | TGI (K-562 leukemia) | GI50 (SF-268 CNS) | TGI (SF-268 CNS) | GI50 (SF-539 CNS) | TGI (SF-539 CNS) | GI50 (SK-MEL-28 melanoma) | TGI (SK-MEL-28 melanoma) | GI50 (SK-OV-3 ovarian) | TGI (SK-OV-3 ovarian) | GI50 (SR leukemia) | TGI (SR leukemia) | GI50 (SW-620 colon) | TGI (SW-620 colon) | GI50 (T-47D breast) | TGI (T-47D breast)
1 | CCCN(CCS(C)(=O)=O)Cc1ccc(-c2ccc3ncnc(Nc4ccc(OCc5cccc(F)c5)c(Cl)c4)c3c2)o1 | > 25 µM | > 25 µM | 8.14 µM | > 25 µM | 9.49 µM | > 25 µM | > 25 µM | > 25 µM | > 25 µM | > 25 µM | > 25 µM | > 25 µM | 0.0197 µM | 0.192 µM | > 20.9 µM | > 25 µM | > 25000 nM | > 25 µM | 1820 nM | 24.7 µM
2 | O=C(/C=C/c1cc2ccccc2[nH]c1=O)/C=C/c1cc2ccccc2[nH]c1=O | 5.28 µM | 9.01 µM | > 32.3 µM | > 100 µM | > 23.1 µM | > 100 µM | 18 µM | 99.7 µM | 9.13 µM | > 75.9 µM | 14.8 µM | > 66.5 µM | 31.4 µM | > 100 µM | 6.42 µM | > 100 µM | 6340 nM | 14.8 µM | 11600 nM | > 100 µM
3 | Cc1ccc(/C=N\NC(=O)c2[nH]c3ccc(F)cc3c2-c2ccccc2)cc1 | 0.0321 µM | 16.5 µM | 0.0291 µM | 0.121 µM | 0.038 µM | 15.5 µM | 0.23 µM | 42.5 µM | 0.0297 µM | 0.965 µM | 1.15 µM | > 100 µM | 0.0307 µM | 2.19 µM | 0.0323 µM | > 64.2 µM | 42.8 nM | > 100 µM | 1100 nM | > 100 µM
4 | O=C(/C=C/c1ccccc1)CCN1CCOCC1 | – | 38 µM | – | 16.4 µM | – | 12.6 µM | – | 38.3 µM | – | 25 µM | – | 27.3 µM | – | 51.6 µM | – | 53.3 µM | – | 16.5 µM | – | 44 µM
5 | O=c1[nH]c(=O)n(C2CC(O)C(COP(=O)(OCc3ccc([N+](=O)[O-])o3)N(CCCCCl)CC(O)CO)O2)cc1F (stereo unspecified) | 0.401 µM | > 100 µM | 0.0262 µM | > 100 µM | 3.14 µM | > 100 µM | – | > 100 µM | < 0.0348 µM | – | > 100 µM | > 100 µM | > 100 µM | > 100 µM | < 0.0269 µM | > 100 µM | 44.7 nM | > 100 µM | > 21400 nM | > 100 µM
6 | CNCCCNCCCCNCCCN1C(=O)c2ccc3c4c(ccc(c24)C1=O)C(=O)N(CCCNCc1ccccc1OC)C3=O | 3.12 µM | 20.2 µM | 3.68 µM | 23.4 µM | 2.78 µM | 34.6 µM | 3.51 µM | 44.3 µM | 2.04 µM | 6.82 µM | 1.4 µM | 10.1 µM | 6.19 µM | 61.5 µM | 4.42 µM | 43.9 µM | 2160 nM | 15.8 µM | 342 nM | 5.97 µM
7 | CN1CCN(C(=O)c2cc(-c3ccc4ncnc(N5CCc6cc(F)c(Cl)cc65)c4c3)cnc2N)CC1 | 0.242 µM | 1.65 µM | 0.0535 µM | 0.409 µM | 0.234 µM | 11.7 µM | 0.216 µM | 2.32 µM | 0.264 µM | 1.44 µM | 0.24 µM | 3.61 µM | 0.382 µM | 2.21 µM | 0.137 µM | – | 315 nM | 1.82 µM | 65.1 nM | 1.84 µM
8 | COc1cc2c(c(OC)c1OC)-c1ccc(SC)c(=O)cc1C(NC(=O)c1ccccc1)CC2 (stereo unspecified) | – | 0.144 µM | – | < 0.0127 µM | – | > 68.1 µM | – | 53.3 µM | – | 0.0922 µM | – | > 63.1 µM | – | 1.94 µM | – | 27 µM | – | 34.7 µM | – | > 100 µM
9 | O=C1OCC2=C1C(c1ccc(Cl)c(Cl)c1)c1cc3c(cc1N2CCO)OCCO3 (stereo unspecified) | 0.503 µM | 4.33 µM | 0.135 µM | 0.587 µM | 0.211 µM | > 22.6 µM | 0.261 µM | 11.6 µM | 0.177 µM | 1.74 µM | 0.412 µM | > 38.6 µM | 0.215 µM | 2.32 µM | 0.187 µM | 21.7 µM | 160 nM | > 50 µM | 282 nM | > 50 µM
10 | O=C1/C(=C/c2ccccc2[N+](=O)[O-])Cc2ccccc21 | 1.64 µM | 3.14 µM | 2.85 µM | 7.12 µM | 3.4 µM | > 100 µM | 3.1 µM | 29.6 µM | 2.15 µM | 5.94 µM | 2.1 µM | 4.2 µM | 6.86 µM | 38.4 µM | 0.495 µM | > 100 µM | 1270 nM | 3.22 µM | 2220 nM | > 100 µM
11 | CN[C@@H](C)C(=O)N[C@H](C(=O)N1CCC[C@H]1C(=O)Nc1sc(-c2ncco2)nc1-c1ccccc1)C1CCCCC1 | 25.7 µM | 65.7 µM | 16.9 µM | 39.1 µM | 24.7 µM | 63.6 µM | 99.7 µM | > 100 µM | 0.957 µM | 17.8 µM | 16.3 µM | 33.9 µM | 0.0336 µM | 0.299 µM | 14 µM | 54.7 µM | 78400 nM | > 100 µM | 24300 nM | 82.4 µM
12 | CN(C)CCCn1c(=O)c2ccccc2c2ccccc21 | 16.4 µM | 34.8 µM | 21.8 µM | 69.5 µM | 21.8 µM | > 100 µM | 15.6 µM | 41.4 µM | 11.8 µM | 28.8 µM | 21.6 µM | 46.9 µM | 26.6 µM | > 100 µM | 12.8 µM | > 100 µM | 6270 nM | 53.3 µM | 25200 nM | > 100 µM
13 | COc1cc2c(cc1OCCCn1c(-c3ccccn3)nc3ccccc31)N=C[C@@H]1CCCN1C2=O | 1.13 µM | 2.65 µM | 4.45 µM | > 24.6 µM | 12.2 µM | > 55.3 µM | 3.07 µM | 9.79 µM | 2.27 µM | 4.98 µM | 5.01 µM | 11.6 µM | 4.23 µM | 19.6 µM | 2.82 µM | > 20.1 µM | 2470 nM | 8.33 µM | 2140 nM | 8.13 µM
14 | COc1ccccc1-c1cc(=O)c2cc(C)cnc2[nH]1 | – | > 100 µM | 9.53 µM | 76.2 µM | – | 61.3 µM | – | > 100 µM | – | > 100 µM | – | > 100 µM | – | > 100 µM | – | > 100 µM | – | > 100 µM | – | > 100 µM
15 | C[C@@H]1CN(Cc2ccc(F)cc2)[C@@H](C)CN1C(=O)c1cc2c(C(=O)C(=O)N(C)C)cn(C)c2cc1Cl | 17.3 µM | 34.4 µM | 23.5 µM | 63.2 µM | 20.8 µM | 88.6 µM | 18.5 µM | 46.1 µM | 14.9 µM | 29.7 µM | 13 µM | 35.2 µM | 22.7 µM | > 79.6 µM | 13.4 µM | 39.2 µM | 24000 nM | > 84.9 µM | 5970 nM | 65.6 µM
16 | Fc1ccc(/C=N/n2c(-c3ccc(F)c(Cl)c3)nn(CNc3ccccc3C(F)(F)F)c2=S)cc1 | 89.7 µM | > 100 µM | 39.4 µM | > 100 µM | 37.6 µM | > 100 µM | > 100 µM | > 100 µM | 93.2 µM | > 100 µM | 97.2 µM | > 100 µM | > 100 µM | > 100 µM | 31.2 µM | > 100 µM | 86200 nM | > 100 µM | 41300 nM | > 100 µM
17 | c1cnn2ncc(-c3ccnc(NCCCN4CCOCC4)n3)c2c1 | 9.29 µM | > 25 µM | 6.08 µM | 17.7 µM | > 22.4 µM | > 25 µM | 6.39 µM | > 23.3 µM | 6.18 µM | 18.7 µM | 5.65 µM | > 18 µM | 8.34 µM | > 25 µM | 5.21 µM | > 21.3 µM | 6660 nM | > 25 µM | 5930 nM | > 21.3 µM
18 | NC(=O)c1csc(C2OC(CO)C(O)C2O)n1 (stereo unspecified) | 75.8 µM | > 10000 µM | 36.5 µM | 3330 µM | 8.88 µM | 7060 µM | 96.1 µM | 9040 µM | 47.9 µM | 3590 µM | > 80.6 µM and 17.2 µM | 1690 µM | 79.9 µM | > 5120 µM | 103 µM | > 6090 µM | 30600 nM | 5900 µM | – | > 5620 µM
19 | CC(C)NCCCn1c(Sc2cc3c(cc2I)OCO3)nc2c(N)ncnc21 | 0.28 µM | 11.6 µM | 0.0637 µM | 6.91 µM | 0.0708 µM | > 100 µM | 2.1 µM | > 100 µM | 0.858 µM | > 68.4 µM | 0.418 µM | 44.5 µM | 0.0451 µM | > 100 µM | 0.0602 µM | > 100 µM | 59.2 nM | > 100 µM | 155 nM | > 100 µM
20 | OCc1ccc(N2CCCC2c2ccccc2)cc1Cl (stereo unspecified) | 4.88 µM | 17.5 µM | 3.07 µM | 11.1 µM | 2.33 µM | 10.6 µM | 13.2 µM | 49.5 µM | 8.77 µM | 21.8 µM | 8.16 µM | 24.6 µM | 2.89 µM | 13 µM | 3.13 µM | 17.2 µM | 2800 nM | 27.7 µM | 358 nM | 4.71 µM
21 | COC1C=COC2(C)Oc3c(C)c(O)c4c(c3C2=O)/C(=N/C2CCC(O)OC2C)C=C(NC(=O)/C(C)=C\C(=O)C2CC2C(O)C(C)C(O)C(C)C(OC(C)=O)C1C)C4=O (stereo unspecified) | – | 6.88 µM | – | 6.32 µM | – | 6.3 µM | – | 10.5 µM | – | 5.34 µM | – | 4.32 µM | – | 20.1 µM | – | 5.06 µM | – | 4.91 µM | – | 8.61 µM
22 | CCCCCCCCCCCCCCCCCC1=NCCN1CCOC1=C(Cl)C(=O)c2ccccc2C1=O | 3.51 µM | 12.3 µM | 1.34 µM | 6 µM | 0.828 µM | 4.2 µM | 2.08 µM | 4.61 µM | 1.83 µM | 3.78 µM | 3.31 µM | 9.05 µM | 1.93 µM | 5.11 µM | 2.07 µM | 4.72 µM | 1730 nM | 3.41 µM | 1860 nM | 4.43 µM
23 | Nc1nc(OCc2ccccc2)c2[nH]cnc2n1 | 46.2 µM and 56 µM | 400 µM and 182 µM | 39.8 µM and 17.7 µM | 181 µM and 57.8 µM | 46.4 µM | 400 µM and 307 µM | 53.2 µM | 400 µM and 574 µM | 30 µM and 31.4 µM | 266 µM and 154 µM | 46.7 µM and 62.9 µM | 400 µM and 293 µM | 21.8 µM and 20.8 µM | 71.9 µM and 160 µM and 60 µM | 36.6 µM | – | 98500 nM | 400 µM and 289 µM | 24900 nM and 23200 nM | 205 µM
